Results from PMC7840129, “Structural basis for heme-dependent NCoR binding to the transcriptional repressor REV-ERBβ” (Science Advances, 2021).

What was measured:
[1] = tested on: heme-bound 15N-labeled REV-ERBβ LBD; test: NMR structural footprinting, 2D [1H,15N]-TROSY-HSQC titration, heme-bound LBD; assay type: binding, human; settings: 298 K; for NMR exchange regime on peptide titration: heme-bound LBD (200 μM, 1.25 equivalents heme), 20 mM Hepes pH 7.4, 50 mM NaCl, 0.5 mM EDTA; for NMR CSP and line broadening, binding surface: heme-bound LBD, 2× ID1 or ID2 peptide
Text: To support our ITC results, we performed solution NMR structural footprinting by titrating NCoR ID1 or ID2 peptide into ^15N-labeled REV-ERBβ LBD. For this analysis, we used backbone NMR chemical shift assignments that we previously reported for apo LBD ([18]) and collected three-dimensional (3D) NMR data to obtain backbone NMR chemical shift assignments for heme-bound LBD (fig. S4). […] To qualitatively assess the strength of each interaction, we analyzed the exchange regime of NMR chemical shift changes on the NMR time scale.
Next, we used differential NMR analysis to structurally map the ID1 and ID2 peptide binding surfaces in the heme-bound LBD. In other NRs, the AF-2 coregulator interaction surface is formed by the physical interaction of helix 12 with a surface formed by helices 3 to 5 within the LBD. REV-ERBβ lacks helix 12 but contains the surface formed by helices 3 to 5 including a conserved lysine residue (K421) on helix 3 important for corepressor interaction ([19]). We quantitatively analyzed chemical shift perturbations (CSPs) and line broadening caused by peptide binding in 2D [^1H,^15N]-TROSY-HSQC NMR spectra (Fig. 1D and fig. S6). […] We also observed binding effects on helix 7, which may be attributed to a peptide-induced allosteric conformational change due to interactions between the heme propionate group and G480 on helix 7 (fig. S7).
For generation of ^15N-labeled REV-ERBβ LBD, protein was expressed in BL21(DE3) E. coli cells using M9 minimal media supplemented with ^15NH4Cl (Cambridge Isotope Laboratories) induced at an optical density at 600 nm (OD600) of 0.6 with 0.5 mM isopropyl-β-D-thiogalactopyranoside (IPTG) for 16 hours at 18°C. For generation of ^2H-,^15N-,^13C-labeled REV-ERBβ LBD (~70% deuteration) for peak assignment experiments, cultures were first grown at 37°C in 1 liter of LB media until an OD600 of 0.6 before the cells were pelleted and resuspended in 0.5 liters of M9 minimal media prepared in D2O supplemented with ^13C-D-glucose and ^15NH4Cl (Cambridge Isotope Laboratories). After 1-hour recovery at 37°C, expression was induced with 0.5 mM IPTG for 16 hour at 37°C before harvesting by centrifugation. […]
To generate heme-bound protein, 1.25 molar equivalents of heme prepared in 0.2 M NaOH as a 50 mM stock were added to ^15N-labeled REV-ERBβ LBD (200 μM) or ^2H-,^15N-,^13C-labeled REV-ERBβ LBD (1 mM) in Hepes buffer [20 mM Hepes (pH 7.4), 50 mM NaCl, and 0.5 mM EDTA]. NMR data were collected at 298 K on a Bruker 700-MHz NMR system equipped with a QCI CryoProbe, processed using NMRFx ([40]), and analyzed using NMRViewJ ([41]). […] 2D [^1H,^15N]-TROSY-HSQC data were collected for heme-bound ^15N-labeled REV-ERBβ LBD at 298 K with addition of NCoR ID1 or ID2 peptides prepared as 50 mM stock in DMSO and analyzed in NMRViewJ. […]

[2] = tested on: REV-ERBβ LBD cobound to heme; test: Crystal structures of REV-ERBβ LBD cobound to heme and NCoR ID peptides; assay type: binding, human; settings: ID1 PDB 6WMQ, ID2 PDB 6WMS
Description: After overnight incubation at 4°C with peptide, REV-ERBβ LBD cobound to heme and peptide was buffer-exchanged into Hepes gel filtration buffer to remove unbound and concentrated to 15 mg/ml (ID2-bound) or 5 mg/ml (ID1-bound). Buffer-exchanged proteins were screened for conditions that produced crystals using the NR LBD (Molecular Dimensions), Structure (Molecular Dimensions), Index (Hampton Research), and PEG/Ion (Hampton Research) kits and sitting drop method (1-μl reservoir solution added to 1-μl drop of protein solution) at 22°C. REV-ERBβ LBD crystals cobound to heme and NCoR ID2 grew in 0.2 M Mg formate dihydrate and 20% (w/v) PEG 3350 (PEG/Ion), and REV-ERBβ LBD crystals cobound to heme and NCoR ID1 grew in 2.0 M ammonium sulfate, 0.1 M Na Hepes (pH 7.5), and 2% PEG 400 (Structure). Crystals in their respective condition were supplemented with 10% glycerol and flash-cooled in liquid nitrogen. X-ray diffraction data were collected at the Advanced Light Source synchrotron (Lawrence Berkeley National Laboratory) in 180 images with a 1° rotation per image. Data were processed, indexed, and scaled using Mosflm and Scala in CCP4 (Collaborative Computational Project No. 4) ([32], [33]). […]
Structures were aligned, and RMSD values were calculated in PyMOL using the “align” command with cycles set to 0 (no outliers were removed). […]

Row | Compound | NMR exchange regime on peptide titration [1] | NMR CSP and line broadening, binding surface [1] | interaction of bound ID peptide in crystal structure (in words) [2]
1 | Ac-RTHRLITLADHICQIITQDFARN-NH2 [NCoR ID1 peptide] | mixture of peak movements in slow and intermediate exchange | AF-2 surface residues including K421 showed the largest CSP changes and line broadening | formed electrostatic interactions with the conserved charge clamp residue K421 on helix 3
2 | CC[C@H](C)[C@H](NC(=O)[C@H](CC(=O)O)NC(=O)[C@H](CCC(=O)O)NC(=O)[C@H](CC(C)C)NC(=O)CNC(=O)[C@H](CC(C)C)NC(=O)[C@H](CC(N)=O)NC(=O)[C@H](CO)NC(=O)[C@H](C)NC(=O)[C@@H]1CCCN1C(=O)[C@H](CC(=O)O)NC(C)=O)C(=O)N[C@H](C(=O)N[C@@H](CCCNC(=N)N)C(=O)N[C@@H](CCCCN)C(=O)N[C@@H](C)C(=O)N[C@@H](CC(C)C)C(=O)N[C@@H](CCSC)C(=O)NCC(=O)N[C@@H](CO)C(=O)N[C@@H](Cc1ccccc1)C(=O)N[C@@H](CC(=O)O)C(=O)N[C@@H](CC(=O)O)C(=O)N[C@@H](CCCCN)C(N)=O)[C@@H](C)CC [NCoR ID2 peptide] | mixture of peak movements in slow and intermediate exchange | AF-2 surface residues including K421 showed the largest CSP changes and line broadening | formed electrostatic interactions with the conserved charge clamp residue K421 on helix 3
